{"source": "ChEMBL document CHEMBL3045970", "about": "“Development of a New Acaricide, Fenpyroximate” (J Pestic Sci, 1995)", "assay": "Half life in diluvial and volcanic ash soils under upland laboratory conditions", "type": "physicochemical"}
{"smiles": "Cc1nn(C)c(Oc2ccccc2)c1/C=N/OCc1ccc(C(=O)OC(C)(C)C)cc1", "note": "[FENPYROXYMATE]", "values": [{"measurement": "t1/2", "value": 26.3, "unit": "days"}]}
